# Values of other authors in patent publication US20060240450A1, “Genetic analysis for stratification of cancer risk” (priority 2001, published 2006).
# Counter-ions that a name gives are not always drawn.
# Tested on: uterus and breast tissue
# Conditions: preliminary clinical data (through 30 months)
smiles,measurement,value
"O=C(c1ccc(OCCN2CCCCC2)cc1)c1c(-c2ccc(O)cc2)sc2cc(O)ccc12 [Raloxifene HCl, methanone, [6-hydroxy-2-(4-hydroxyphenyl)benzo[b]thien-3-yl]-[4-[2-(1-piperidinyl)ethoxy]phenyl]-hydrochloride]",estrogen-like effects on uterus and breast tissue,lacks estrogen-like effects
